Laboratory results: patent US20260306633A1, “A COMBINATION THERAPY FOR CANCER TREATMENT” (Purdue Research Foundation, priority 2023, published 2026)
Read-outs that look alike come from different tables or passages of the source.

Columns and labels:
TNBC cells [1] = experiment: Combination index (CI) of binary therapy, Chou-Talalay method, CompuSyn software; format: cell-based, human; conditions: PS 50 nM + methotrexate 500 μM (footnote 500 nM)
TNBC BT-549 cells = experiment: Cell survival / cell inhibition (MTT cell cytotoxicity assay) after 24 h treatment with photosensitizer and/or chemotherapeutic agent, dark or light-irradiated; format: cell-based, human; conditions: for viability at 0.1 µM / viability at 0.01 µM: fluorouracil; for viability at 0.1 µM: high end of 10-100 nM (so in the source), read-out: cell survival, drug only (end of decrease); for viability at 0.01 µM: low end of 10-100 nM (so in the source), read-out: cell survival, drug only (start of decrease)
Procedure: Human mammary epithelial carcinoma cell lines purchased from the American Type Culture Collection BT-549 (ATCC HTB-122) were cultured according to ATCC protocol. BT-549 cells were grown in RPMI 1640 containing 0.023 IU/mL insulin and supplemented with 10% fetal bovine serum (FBS). Cells were grown to 80-90% confluence in 75-cm^2 culture flasks (Corning) for 4-5 days in a humidified incubator (Fisher Scientific Isotemp) with 5% CO2 at 37° C. During the incubation period, growth media was changed once with fresh pre-warmed media (pH 7.2). To harvest the cells, old growth media was aspirated out, and 3 mL 0.25% trypsin solution (Thermo Sci Hyclone) were added. The cells were incubated for 5 minutes, and the cell pellet after centrifugation was resuspended in 3 mL media, broken up gently, then 1 mL of suspended cells was transferred into a new T75 cell culture flask containing pre-warmed media (20 mL) for further culturing.
(§1) Cells were grown to confluence in a 96-well plate (9×10^3 cells/well) and co-treated for 24 hours with synthesized photosensitizers (PSs) and chemotherapeutic agents of varying concentrations ranging from 5 nM to 50 μM) in growth media from a stock solution of 10 mM in DMSO (dimethyl sulfoxide, Fisher). After 24-hour treatment, old growth media containing the PSs or compounds were aspirated out and replaced with fresh media. Plates were then positioned below a non-coherent LumaCare LC-122 650 nm light source for 1 minute at an energy fluence rate of 0.96 J/cm^2 and a power of 16 mW/cm^2 (measured using a Newport optical power meter Model 840). Unirradiated cells served as control samples. The following day, cells were washed with pre-warmed PBS, and 11MTT (3-[4,5-dimethyl-thiazol-2-yl]-2.5-diphenyltetrazolium bromide, Sigma, 0.3 mg/mL) in PBS was added to each well. Samples were allowed to incubate for additional 2 hours, after which dark blue crystals formed. DMSO was added to each well and plates were shaken at room temperature for 1 hour to dissolve the purplish-blue formazan crystals. Absorbance values at 570 nm were measured on a microplate reader (BioRad 550). Cell survival was calculated based on the absorbance of the untreated cells alone (as control) and were directly proportional to the number of viable cells in culture. Results were reported as the mean±SD of triplicate measurements.
The unmetallated PS and the indium complexes were used.
Light dose corresponds to an energy fluence rate of 0.96 J/cm^2 used.
Power of 16 mW/cm^2 used.
Cell inhibition in TNBC cells is based on the cell survival (MTT) assay of the binary therapy, blending the effect of PDT and chemotherapeutic agents. […] MePheo serves as a control compound. TNBC cells were then exposed to light after binary treatment for 24 hours.

TNBC cells [2] = experiment: Combination index (CI) of binary therapy, Chou-Talalay method, CompuSyn software; format: cell-based, human
Procedure: (§2) The calculated CI values are based on 50 nM concentration for the PSs, 50 nM paclitaxel, 500 nM doxorubicin, 25 μM cisplatin, 25 μM fluorouracil, and 500 nM methotrexate.
as §1
The combination index (CI) for the binary treatment of TNBC cells with a PS and a chemotherapeutic drug was calculated based on the Chou-Talalay method using CompuSyn software. […] The unified dynamics algorithm uses a minimum of dose-data points to fit the general MAL theory.
as §2

human TNBC BT-549 cells = experiment: Fluorescence microscopy (Hoechst 33258) of cell morphology / cell death pathway; format: cell-based; conditions: fluorouracil 25 μM, dark (FIG. 18U)
Procedure: Grayscale images of cells stained with Hoechst 33258. Morphology of (A) untreated unirradiated cells, sham control; (B) illuminated cells; (C-E) cells treated with: PSs (InCLA, CBTN, and CPA) and paclitaxel in the dark; (F-H) PSs, followed by 1 minute light exposure; (I) paclitaxel unirradiated; (J-L) PSs and paclitaxel in the dark; (M-O) PSs co-treated with paclitaxel, then light-exposed; (P-Q) PSs co-treated with doxorubicin, then irradiated; (R) PSs and cisplatin, dark; (S-T) PSs and cisplatin, irradiated; (U) fluorouracil, dark; (V) InCLA with fluorouracil in the dark; (W) light-exposed and, (X-Y) PSs with methotrexate with light. Inserts indicate enlarged view. […] Light dose in 1 minute=0.96 J cm^−2; in 30 seconds=0.48 J cm^−2. Concentrations: PSs=50 nM; paclitaxel=50 nM; doxorubicin=500 nM; cisplatin=25 μM; fluororuracil=25 μM; and, methotrexate=500 nM.
Cells (1 mL aliquots) obtained from a diluted cell suspension were seeded into each well (1.7 cm^2, 8×10^3 cells/well) of a 4-well culture slide (BD Biosciences) and grown to confluence in 5% CO2 at 37° C. for 3-4 days for attachment to the substratum. After aspirating the old growth media, 1 mL of the photosensitizer and chemotherapeutic agents (with appropriate concentrations) in fresh pre-warmed media at 37° C. was added to each well. After compound treatment for 24 hours, cells were washed twice with 1 mL fresh growth media, and then irradiated with light using LumaCare LC-122 as described above. Cells were stained in the dark with Hoechst 33258 (Molecular Probes) in pre-warmed media for 10 minutes at 37° C., washed twice with filtered PBS, then fixed with filtered paraformaldehyde for 15 minutes in the incubator. After thorough liquid aspiration, the wells were removed and allowed to air dry in the dark for 1 hour. Slides were protected with coverslips, whose edges were sealed using clear fast-drying nail polish and allowed to dry at room temperature in the dark for 30 minutes. Images were recorded using fluorescence microscopy (DAPI for Hoechst 350-390 nm excitation and 460-490 nm emission filters) using an upright fluorescence microscope with Retiga imaging 2000R (Nikon Optiphot-2, 20× and 40×) and an image processing Nikon NIS-Elements V4.0 Qimaging software.
To determine the preferred cell death pathway for the binary chemophotodynamic therapy, tracking the hallmarks of apoptosis or necrosis was accomplished using a nuclear stain to monitor chromatin condensation and cellular contraction. TNBC cells are spindle-shaped and nearly round with intact cytoplasm, diffused chromatin, distinct cellular membrane, and large oval nuclei staining dark blue with the nuclear stain (FIG. 18A-B).

[3] = Homo sapiens, BT-549, 24 h, dark
[4] = Homo sapiens, BT-549, 24 h, light

## C=Cc1c(C)c2cc3nc(c4c5[nH]c(cc6nc(cc1[nH]2)C(C)=C6CC)c(C)c5C(=O)[C@@H]4C(=O)OC)[C@@H](CCC(=O)OC)[C@@H]3C [MePheo, methyl pheophorbide, reference compound]
TNBC cells [1]
  combination index (CI) with methotrexate: 7.79
  synergism vs additive vs antagonism effect with methotrexate: (SA) (SA (3.3-10), strong antagonism)
TNBC BT-549 cells; PS 100 nM + cisplatin 25 μM, 24 h, light 0.96 J cm−2
  cell inhibition (%), combination with cisplatin: 39%
TNBC BT-549 cells; PS 100 nM + cisplatin 25 μM, light
  effect of added cisplatin compared to cisplatin-treated cell viability: reduced cell survival
TNBC BT-549 cells; PS 100 nM + doxorubicin 500 nM, 24 h, light 0.96 J cm−2
  cell inhibition (%), combination with doxorubicin: 36%
TNBC BT-549 cells; PS 100 nM + fluorouracil 25 μM, 24 h, dark
  cell survival, co-treatment with fluorouracil in the dark: 61%
TNBC BT-549 cells; PS 100 nM + fluorouracil 25 μM, 24 h, light 0.96 J cm−2
  cell inhibition (%), combination with fluorouracil: 34%
TNBC BT-549 cells; PS 100 nM + methotrexate 500 nM, 24 h, light 0.96 J cm−2
  cell inhibition (%), combination with methotrexate: 40%
TNBC BT-549 cells; PS 100 nM + paclitaxel 50 nM, 24 h, dark
  cell survival, co-treatment with paclitaxel in the dark: 46%
TNBC BT-549 cells; PS 100 nM + paclitaxel 50 nM, 24 h, light 0.96 J cm−2
  cell inhibition (%), combination with paclitaxel: 55%
TNBC BT-549 cells; PS 500 nM, dark
  cytotoxicity in the absence of light, PS alone: No cytotoxicity
TNBC BT-549 cells; PS at lower concentration (CPA: 50 nM) + methotrexate 500 nM, light
  cell viability reduction (difference) vs PS alone: 10%
TNBC cells [2]; PS 50 nM + cisplatin 25 μM
  combination index (CI) with cisplatin: 6.10
  synergism vs additive vs antagonism effect with cisplatin: (SA) (SA (3.3-10), strong antagonism)
TNBC cells [2]; PS 50 nM + doxorubicin 500 nM
  combination index (CI) with doxorubicin: 6.37
  synergism vs additive vs antagonism effect with doxorubicin: (SA) (SA (3.3-10), strong antagonism)
TNBC cells [2]; PS 50 nM + fluorouracil 25 μM
  combination index (CI) with fluorouracil: 17.96
  synergism vs additive vs antagonism effect with fluorouracil: (VSA) (VSA (>10), very strong antagonism)
TNBC cells [2]; PS 50 nM + paclitaxel 50 nM
  combination index (CI) with paclitaxel: 13.27
  synergism vs additive vs antagonism effect with paclitaxel: (VSA) (VSA (>10), very strong antagonism)

## O=c1[nH]cc(F)c(=O)[nH]1 [fluorouracil, 5-Fluorouracil, reference compound]
TNBC BT-549 cells; Homo sapiens, BT-549, 24 h, fluorouracil 25 μM, dark, read-out: cell survival, drug only
  viability at 25 µM: 64%
TNBC BT-549 cells; [3]
  viability at 0.1 µM: 65%
  viability at 0.01 µM: 87%
TNBC BT-549 cells; [4]
  viability at 0.1 µM: 68%
  viability at 0.01 µM: 85%
TNBC BT-549 cells; drug alone, light vs dark
  average decrease in cell survival upon light irradiation compared to unirradiated cells, drug only: 9%
Human TNBC BT-549 cells
  cell morphology, fluorouracil, dark: did not affect the cellular morphology
